Results: patent US20240066027A1 (DOMAIN THERAPEUTICS, priority 2020, published 2024)
Values belong to the molecule of their own block, whether it stands above or below them.

Molecular target: T1, human PAR-2 (hPAR-2) receptor expressed in HEK-293 T cells in an endogenous manner (Homo sapiens, UniProt P55085)
T1 construct: human PAR-2 (hPAR-2) receptor expressed in HEK-293 T cells in an endogenous manner; endogenous in cells; host or cells: HEK-293 T cells
T1 sequence (P55085 26-397): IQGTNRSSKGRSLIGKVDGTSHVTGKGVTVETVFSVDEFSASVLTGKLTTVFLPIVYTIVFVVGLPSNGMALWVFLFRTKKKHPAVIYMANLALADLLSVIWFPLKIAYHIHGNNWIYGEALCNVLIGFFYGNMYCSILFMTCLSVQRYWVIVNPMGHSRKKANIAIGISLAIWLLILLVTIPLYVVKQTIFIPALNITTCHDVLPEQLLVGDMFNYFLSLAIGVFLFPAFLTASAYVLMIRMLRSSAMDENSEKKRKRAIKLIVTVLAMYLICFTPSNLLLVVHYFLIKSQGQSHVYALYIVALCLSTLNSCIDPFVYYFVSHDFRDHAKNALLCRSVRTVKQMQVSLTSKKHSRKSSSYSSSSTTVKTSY
Experiment: In vitro human PAR-2 functional antagonist activity using calcium assays (Fluo4AM, FLIPR Tetra)
Type: cell-based
Conditions: HEK-293 T cells stimulated by an EC80 of the 2-Furoyl-LIGRLO-NH2 peptide after 10 min incubation with compound; 20 concentrations, duplicate, two independent experiments
How it was run: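 Fluo4AM-loaded HEK-293 T cells were exposed to compound for 10 min to read agonist effect. They were then stimulated with an EC80 of 2-Furoyl-LIGRLO-NH2 and intracellular calcium was recorded for 5 more min on FLIPR. Antagonism was scored against buffer basal and EC80 agonist-alone signals.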

IC50: < 20 nM
Compound: CC1(C)CN(c2ccc(C(N)=O)cn2)CCN1C(=O)c1ccc2c(-c3ccc(Cl)c(F)c3)cn(C(C)(C)C)c2n1 [Example 138, 6-(4-(1-(tert-butyl)-3-(4-chloro-3-fluorophenyl)-1H-pyrrolo[2,3-b]pyridine-6-carbonyl)-3,3-dimethylpiperazin-1-yl)nicotinamide]

IC50: < 20 nM
Compound: CN(C)C(=O)c1ccc(N2CCN(C(=O)c3ccc4c(-c5ccc(Cl)c(F)c5)cn(C(C)(C)C)c4n3)C(C)(C)C2)nc1 [Example 139, 6-(4-(1-(tert-butyl)-3-(4-chloro-3-fluorophenyl)-1H-pyrrolo[2,3-b]pyridine-6-carbonyl)-3,3-dimethylpiperazin-1-yl)-N,N-dimethylnicotinamide]

IC50: < 20 nM
Compound: COC[C@@H](C)n1cc(-c2ccc(Cl)c(F)c2)c2ccc(C(=O)N3CCN(c4cc(C)c(C(=O)O)c(C)n4)CC3(C)C)nc21 [Example 140, (R)-6-(4-(3-(4-chloro-3-fluorophenyl)-1-(1-methoxypropan-2-yl)-1H-pyrrolo[2,3-b]pyridine-6-carbonyl)-3,3-dimethylpiperazin-1-yl)-2,4-dimethyinicotinic acid]

IC50: < 20 nM
Compound: Cc1cc(N2CCN(C(=O)c3ccc4c(-c5ccc(F)c(F)c5)cn(CC(C)C)c4n3)C(C)(C)C2)nc(C)c1C(=O)O [Example 141, 6-(4-(3-(3,4-difluorophenyl)-1-isobutyl-1H-pyrrolo[2,3-b]pyridine-6-carbonyl)-3,3-dimethylpiperazin-1-yl)-2,4-dimethylnicotinic acid]

IC50: < 20 nM
Compound: Cc1ccc(-c2cn(CC(C)C)c3nc(C(=O)N4CCN(c5cc(C)c(C(=O)O)c(C)n5)CC4(C)C)ccc23)cc1F [Example 142, 6-(4-(3-(3-fluoro-4-methylphenyl)-1-isobutyl-1H-pyrrolo[2,3-b]pyridine-6-carbonyl)-3,3-dimethylpiperazin-1-yl)-2,4-dimethylnicotinic acid]

IC50: < 20 nM
Compound: Cc1cc(N2CCN(C(=O)c3ccc4c(-c5cc(F)c(F)c(F)c5)cn(CC(C)C)c4n3)C(C)(C)C2)nc(C)c1C(=O)O [Example 143, 6-(4-(1-isobutyl-3-(3,4,5-trifluorophenyl)-1H-pyrrolo[2,3-b]pyridine-6-carbonyl)-3,3-dimethylpiperazin-1-yl)-2,4-dimethylnicotinic acid]

IC50: < 20 nM
Compound: Cc1cc(N2CCN(C(=O)c3ccc4c(-c5ccc(C(F)(F)F)c(F)c5)cn(CC(C)C)c4n3)C(C)(C)C2)nc(C)c1C(=O)O [Example 144, 6-(4-(3-(3-fluoro-4-(trifluoromethyl)phenyl)-1-isobutyl-1H-pyrrolo[2,3-b]pyridine-6-carbonyl)-3,3-dimethylpiperazin-1-yl)-2,4-dimethylnicotinic acid]

IC50: > 10000 nM
Compound: COc1ccc(-c2cn(CC(C)C)c3nc(C(=O)N4CCNC(=O)C4(C)C)ccc23)cc1OC [Example 145, 4-(3-(3,4-dimethoxyphenyl)-1-isobutyl-1H-pyrrolo[2,3-b]pyridine-6-carbonyl)-3,3-dimethylpiperazin-2-one]

IC50: < 20 nM
Compound: COCC(C)(C)n1cc(-c2ccc(Cl)c(F)c2)c2ccc(C(=O)N3CCNC(=O)C3(C)C)nc21 [Example 151, 4-(3-(4-chloro-3-fluorophenyl)-1-(1-methoxy-2-methylpropan-2-yl)-1H-pyrrolo[2,3-b]pyridine-6-carbonyl)-3,3-dimethylpiperazin-2-one]

IC50: < 20 nM
Compound: COCC(C)(C)n1cc(-c2ccc(Cl)c(F)c2)c2ccc(C(=O)N3CCN(c4cc(C)c(C(=O)O)c(C)n4)CC3(C)C)nc21 [Example 152, 6-(4-(3-(4-chloro-3-fluorophenyl)-1-(1-methoxy-2-methylpropan-2-yl)-1H-pyrrolo[2,3-b]pyridine-6-carbonyl)-3,3-dimethylpiperazin-1-yl)-2,4-dimethylnicotinic acid]

IC50: 20 to 10000 nM
Compound: Cc1cc(N2CCN(C(=O)c3ccc4c(-c5ccc(Cl)c(F)c5)cn(Cc5ncccn5)c4n3)C(C)(C)C2)nc(C)c1C(=O)O [Example 158, 6-(4-(3-(4-chloro-3-fluorophenyl)-1-(pyrimidin-2-ylmethyl)-1H-pyrrolo[2,3-b]pyridine-6-carbonyl)-3,3-dimethylpiperazin-1-yl)-2,4-dimethylnicotinic acid]

Continued, molecule first:

Compound: Cc1cc(N(C)C2CCN(C(=O)c3ccc4c(-c5ccc(Cl)c(F)c5)cn(C(C)(C)C)c4n3)CC2)nc(C)c1C(=O)O [Example 147, 6-((1-(1-(tert-butyl)-3-(4-chloro-3-fluorophenyl)-1H-pyrrolo[2,3-b]pyridine-6-carbonyl)piperidin-4-yl)(methyl)amino)-2,4-dimethyinicotinic acid]
IC50: 20 to 10000 nM

Compound: Cc1cc(N2C[C@@H]3C[C@H]2CN3C(=O)c2ccc3c(-c4ccc(Cl)c(F)c4)cn(C(C)(C)C)c3n2)nc(C)c1C(=O)O [Example 148, 6-((1S,4S)-5-(1-(tert-butyl)-3-(4-chloro-3-fluorophenyl)-1H-pyrrolo[2,3-b]pyridine-6-carbonyl)-2,5-diazabicyclo[2.2.1]heptan-2-yl)-2,4-dimethyinicotinic acid]
IC50: 20 to 10000 nM

Compound: Cc1cc(N2CCN(C(=O)c3ccc4c(-c5ccc(Cl)c(F)c5)cn(Cc5ccncc5)c4n3)C(C)(C)C2)nc(C)c1C(=O)O [Example 149, 6-(4-(3-(4-chloro-3-fluorophenyl)-1-(pyridin-4-ylmethyl)-1H-pyrrolo[2,3-b]pyridine-6-carbonyl)-3,3-dimethylpiperazin-1-yl)-2,4-dimethylnicotinic acid]
IC50: 20 to 10000 nM

Compound: Cc1cc(N[C@@H]2CCN(C(=O)c3ccc4c(-c5ccc(Cl)c(F)c5)cn(C(C)(C)C)c4n3)C2)nc(C)c1C(=O)O [Example 153, (R)-6-((1-(1-(tert-butyl)-3-(4-chloro-3-fluorophenyl)-1H-pyrrolo[2,3-b]pyridine-6-carbonyl)pyrrolidin-3-yl)amino)-2,4-dimethylnicotinic acid]
IC50: > 10000 nM

Compound: Cc1cc(N[C@H]2CCN(C(=O)c3ccc4c(-c5ccc(Cl)c(F)c5)cn(C(C)(C)C)c4n3)C2)nc(C)c1C(=O)O [Example 154, (S)-6-((1-(1-(tert-butyl)-3-(4-chloro-3-fluorophenyl)-1H-pyrrolo[2,3-b]pyridine-6-carbonyl)pyrrolidin-3-yl)amino)-2,4-dimethylnicotinic acid]
IC50: > 10000 nM

Compound: Cc1cc(N(C)[C@@H]2CCN(C(=O)c3ccc4c(-c5ccc(Cl)c(F)c5)cn(C(C)(C)C)c4n3)C2)nc(C)c1C(=O)O [Example 155, (R)-6-((1-(1-(tert-butyl)-3-(4-chloro-3-fluorophenyl)-1H-pyrrolo[2,3-b]pyridine-6-carbonyl)pyrrolidin-3-yl)(methyl)amino)-2,4-dimethylnicotinic acid]
IC50: 20 to 10000 nM

Compound: Cc1cc(N(C)[C@H]2CCN(C(=O)c3ccc4c(-c5ccc(Cl)c(F)c5)cn(C(C)(C)C)c4n3)C2)nc(C)c1C(=O)O [Example 156, (S)-6-((1-(1-(tert-butyl)-3-(4-chloro-3-fluorophenyl)-1H-pyrrolo[2,3-b]pyridine-6-carbonyl)pyrrolidin-3-yl)(methyl)amino)-2,4-dimethylnicotinic acid]
IC50: 20 to 10000 nM

Compound: Cc1cc(N2CCN(C(=O)c3ccc4c(-c5ccc(Cl)c(F)c5)cn(C(C)(C)C)c4n3)CC2CO)nc(C)c1C(=O)O (stereo not shown) [Example 157, 6-(4-(1-(tert-butyl)-3-(4-chloro-3-fluorophenyl)-1H-pyrrolo[2,3-b]pyridine-6-carbonyl)-2-(hydroxymethyl)piperazin-1-yl)-2,4-dimethylnicotinic acid]
IC50: 20 to 10000 nM
